Test system: honey bees, Apis mellifera
Assay: Artificial styrofoam flower foraging assay with 20% sucrose nectar tube
Assay type: in vivo
Conditions: for Consumed, ml (nectar) / # feeding: n = 4
Description: To determine how the phytoecdysteroid inhibits bee foraging, we utilized artificial flowers so that the compounds can be added to a nectar source or sprayed on the surface of the artificial flower. The artificial flowers were made from green florist styrofoam blocks (12 cm^2) and petals made from blue and green tape. In the center of the styrofoam block a 2 ml test tube was inserted that contained a 20% sucrose solution in water as a substitute for nectar. The same array of holders was used as in the previous study (FIG. 2).
To determine if the repellent activity occurs in a concentration dependent manner we utilized the artificial flowers treated with various concentrations of the steroids in the nectar tube. In addition to observing the number of honey bees feeding from the nectar tube we measured the amount of nectar consumed after the observation period of about 45 min. The purified phytoecdysteroid was effective at 2.5 and 0.4 mg/ml in reducing the number of honey bees feeding on the nectar compared to lower concentrations. […] The pure 20-OH-ecdysone was also inhibitory at 1 mg/ml and 0.2 mg/ml with more foraging at the lower concentration. Cucurbitacin B was inhibitory at 0.5 mg/ml but not at 0.1 mg/ml.

[1] = 0.01 mg/ml in 2 ml nectar tube, about 45 min
[2] = 0.01 mg/ml in nectar tube, about 45 min
[3] = 0.1 mg/ml in 2 ml nectar tube, about 45 min
[4] = 0.1 mg/ml in nectar tube, about 45 min

For C[C@H]([C@H](O)CCC(C)(C)O)[C@H]1CC[C@@]2(O)C3=CC(=O)[C@@H]4C[C@@H](O)[C@@H](O)C[C@]4(C)[C@H]3CC[C@]12C [Pure ecdsyone, ecdysone], the “inhibition of honey bees feeding on the nectar” value (“inhibition of honey bees feeding” for short) (0.01 mg/ml in nectar tube) was “not”, the “inhibition of honey bees feeding” value (0.1 mg/ml in nectar tube) was “inhibitory” and the “inhibition of honey bees feeding” value (1 mg/ml in nectar tube) was “inhibitory”. For the same compound, the “Consumed, ml (nectar)” value (Table 5, 0.01 mg/ml in 2 ml nectar tube) was 0.8 mL, the “# feeding” value (Table 5, 0.01 mg/ml in nectar tube) was 24 and the “Consumed, ml (nectar)” value (Table 5, 0.1 mg/ml in 2 ml nectar tube) was 0.3 mL. The “# feeding” value (Table 5, 0.1 mg/ml in nectar tube) was 0, the “Consumed, ml (nectar)” value (Table 5, 1 mg/ml in 2 ml nectar tube) was 0.2 mL and the “# feeding” value (Table 5, 1 mg/ml in nectar tube) was 0.
With CC(=O)OC(C)(C)/C=C/C(=O)[C@](C)(O)[C@H]1C(O)C[C@@]2(C)[C@@H]3CC=C4[C@H](CC(O)C(=O)C4(C)C)[C@@]3(C)C(=O)C[C@]12C (stereo partly drawn) [Cucurbitacin B] the “Consumed, ml (nectar)” value [1] was 1.9 mL, the “# feeding” value [2] was 4 and the “Consumed, ml (nectar)” value [3] was 1.2 mL. The “inhibition of honey bees feeding” value (0.1 mg/ml in nectar tube) was “not”, the “# feeding” value [4] was 3 and the “Consumed, ml (nectar)” value (0.5 mg/ml in 2 ml nectar tube, about 45 min) was 0.3 mL. The “inhibition of honey bees feeding” value (0.5 mg/ml in nectar tube) was “inhibitory” and the “# feeding” value (0.5 mg/ml in nectar tube, about 45 min) was 8.
With CC(C)(O)CC[C@@H](O)[C@](C)(O)[C@H]1CC[C@@]2(O)C3=CC(=O)[C@@H]4C[C@@H](O)[C@@H](O)C[C@]4(C)[C@H]3CC[C@]12C [20-hydroxyecdysone] the “Consumed, ml (nectar)” value [1] was 1.1 mL, the “# feeding” value [2] was 37 and the “Consumed, ml (nectar)” value [3] was 1.7 mL. The “# feeding” value [4] was 56, the “Consumed, ml (nectar)” value (0.2 mg/ml in 2 ml nectar tube, about 45 min) was 0.25 mL and the “inhibition of honey bees feeding” value (0.2 mg/ml in nectar tube) was “inhibitory”. The “# feeding” value (0.2 mg/ml in nectar tube, about 45 min) was 17, the “Consumed, ml (nectar)” value (1 mg/ml in 2 ml nectar tube, about 45 min) was 0.05 mL and the “inhibition of honey bees feeding” value (1 mg/ml in nectar tube) was “inhibitory”. The “# feeding” value (1 mg/ml in nectar tube, about 45 min) was 2.
